Tests used:
Type in all cases: in vivo
[1] = tested on: ragweed (common ragweed, Ambrosia artemisiifolia); assay: Test A1 preemergence, ragweed
Outline: (§1)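 Herbicidal response was scored on plants treated either preemergence, by directed spray onto soil of a loam–sand blend after sowing, or postemergence on potted plants at the one- to two-leaf stage, 2–10 cm high. Test chemicals were carried in a non-phytotoxic solvent mix with surfactant.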

[2] = tested on: wheat (Triticum aestivum); assay: Test A1 preemergence, wheat
Outline: as §1

[3] = tested on: blackgrass (Alopecurus myosuroides); assay: Test A1 postemergence, blackgrass; conditions: Postemergence, 0 to 100 scale (0 no effect, 100 complete control)
Outline: as §1

[4] = tested on: Foxtail, Giant (giant foxtail, Setaria faberi); assay: Test A1 postemergence, Foxtail, Giant; conditions: Postemergence
Outline: as §1

[5] = tested on: goosegrass (Eleusine indica); assay: Test A1 postemergence, goosegrass; conditions: Postemergence
Outline: as §1

[6] = tested on: Oat, Wild (wild oat, Avena fatua); assay: Test A1 postemergence, Oat, Wild; conditions: Postemergence
Outline: (§2)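 Postemergence species (ragweed, Palmer pigweed, wild oat) were sprayed at one- to two-leaf stage, 2 to 10 cm tall. Corn was treated preemergence by directed soil spray. Both used a loam soil/sand blend and compounds in a non-phytotoxic solvent mixture with surfactant.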

[7] = tested on: Pigweed, Palmer (palmer amaranth, palmer pigweed, Amaranthus palmeri); assay: Test A1 postemergence, Pigweed, Palmer; conditions: Postemergence
Outline: as §2

[8] = tested on: barnyardgrass (Echinochloa crus-galli); assay: Test B1 flooded paddy test, barnyardgrass; conditions: 250 g ai/ha, Flood, applied to paddy water, 2-leaf stage, visually evaluated after 10 to 14 days
Excerpt: A dash (-) response means no test result.

[9] = 31 g ai/ha, 0 to 100 scale (0 no effect, 100 complete control)
[10] = 125 g ai/ha, 0 to 100 scale, 0 no effect, 100 complete control
[11] = 31 g ai/ha, 0 to 100 scale (0 no effect, 100 complete control), 10 days

Compound | Plant response rating, Ragweed [1, 9] | Plant response rating, Ragweed [1, 10] | Plant response rating, Wheat [2, 9] | Plant response rating, Wheat [2, 10] | Plant response rating, Blackgrass ([3]; 31 g ai/ha, 10 days) | Plant response rating, Blackgrass ([3]; 125 g ai/ha) | Plant response rating, Foxtail, Giant [4, 11] | Plant response rating, Foxtail, Giant ([4]; 125 g ai/ha, 0 to 100 scale) | Plant response rating, Goosegrass [5, 11] | Plant response rating, Goosegrass ([5]; 125 g ai/ha, 0 to 100 scale) | Plant response rating, Oat, Wild [6, 11] | Plant response rating, Oat, Wild ([6]; 125 g ai/ha, 0 to 100 scale) | Plant response rating, Pigweed, Palmer [7, 11] | Plant response rating, Pigweed, Palmer ([7]; 125 g ai/ha, 0 to 100 scale) | Plant response rating, Barnyardgrass (0 to 100 scale, 0 is no effect, 100 is complete control) [8]
CCc1cc(C)c(C2=NOC3(CCCC3)C2)cc1NS(=O)(=O)C(F)(F)F [Compound 311] | 0 | 0 | 0 | 0 | 0 | 0 | 0 | 20 | 0 | 0 | 0 | 0 | 0 | 0 | 0
COc1cc(C)c(NS(=O)(=O)C(F)(F)F)cc1C1=NOC2CCCC12 (stereo not drawn) [Compound 312] | 0 | 30 | 0 | 0 | 0 | 0 | 0 | 10 | 0 | 0 | 0 | 20 | 0 | 0 | 0
COC(=O)OCN(c1cc(C2=NOC3CCCC23)c(C)cc1C)S(=O)(=O)C(F)(F)F (stereo not drawn) [Compound 315] | 20 | 60 | 20 | 70 | 0 | 0 | 0 | 20 | 80 | 80 | 0 | 20 | 30 | 50 | 98
Cc1cc(C)c(N(COC(=O)OC(C)(C)C)S(=O)(=O)C(F)(F)F)cc1C1=NOC2CCCC12 (stereo not drawn) [Compound 316] | 0 | 20 | 0 | 0 | 0 | 0 | 0 | 0 | 0 | 90 | 0 | 10 | 30 | 70 | 95
Cc1cc(C)c(N(COC(=O)N(C)C)S(=O)(=O)C(F)(F)F)cc1C1=NOC2CCCC12 (stereo not drawn) [Compound 317] | 0 | 0 | 0 | 0 | 0 | 0 | 0 | 0 | 0 | 0 | 0 | 0 | 0 | 0 | 0
CCOC1CC(c2cc(NS(=O)(=O)C(F)(F)F)c(C)cc2C)=NO1 (stereo not drawn) [Compound 318] | 50 | 70 | 0 | 50 | 0 | 50 | 0 | 80 | 30 | 30 | 0 | 10 | 30 | 50 | 95
Cc1c(C(=O)N(C)C)cc(NS(=O)(=O)C(F)(F)F)c(Cl)c1F [Compound 320] | 60 | 70 | 10 | 50 | 40 | 0 | 0 | 40 | 40 | 0 | 0 | 0 | 40 | 80 | 0
Cc1c(C(=O)N2CCOCC2)cc(NS(=O)(=O)C(F)(F)F)c(Cl)c1F [Compound 321] | 50 | 90 | 0 | 80 | 10 | 10 | 0 | 0 | 0 | 80 | 0 | 10 | 50 | 70 | 15
Cc1cc(C)c(C2=NOC(OCC(C)C)C2)cc1NS(=O)(=O)C(F)(F)F (stereo not drawn) [Compound 322] | 20 | 30 | 0 | 50 | 20 | 50 | 0 | 40 | 20 | 50 | 0 | 0 | 0 | 50 | 55
CCCCOC1CC(c2cc(NS(=O)(=O)C(F)(F)F)c(C)cc2C)=NO1 (stereo not drawn) [Compound 323] | 0 | 30 | 0 | 50 | 0 | 50 | 10 | 50 | 0 | 50 | 0 | 0 | 20 | 60 | 0
Cc1c(C(=O)N2CCOCC2)cc(N(COC(=O)C(C)(C)C)S(=O)(=O)C(F)(F)F)c(C)c1C [Compound 324, [[(Trifluoromethyl)sulfonyl][2,3,4-trimethyl-5-(4-morpholinylcarbonyl)phenyl]amino]methyl 2,2-dimethylpropanoate] | 20 | 80 | 0 | 70 | 0 | 0 | 20 | 90 | 30 | 80 | 0 | 0 | 30 | 70 | 90
CCOC(=O)N(c1cc(C(=O)N2CCOCC2)c(C)c(C)c1C)S(=O)(=O)C(F)(F)F [Compound 325] | 50 | 90 | 20 | 60 | 0 | 90 | 30 | 90 | 0 | 90 | 0 | 10 | 30 | 90 | 95

Source: patent US20230278972A1, “SUBSTITUTED HALOALKYL SULFONANILIDE HERBICIDES” (FMC Corporation, priority 2020, published 2023)
